The term IC50 denotes the midpoint of a concentration-inhibition curve.

One experiment relates to H358. Put plainly: Anti-proliferation 2D CTG test (H358). In kind it is cell-based. The settings on record: H358 cells, 1500 cells/well, 5 days incubation with compound, CTG readout. Put shortly:
(§1)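 H358 (1500 cells/well) and MIA PaCa-2 (500 cells/well) seeded overnight, then treated 5 days at 37 °C with 10-point 1:3 dilutions, top final […], 0.5% DMSO. Viability by CellTiter-Glo luminescence; IC50 from four-parameter fit normalized to plate controls.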

A further experiment relates to MIA PaCa-2. In words: Anti-proliferation 2D CTG test (MIA PaCa-2). In kind it is cell-based. The settings on record: MIAPACA-2 cells, 500 cells/well, 5 days incubation with compound, CTG readout. Put shortly:
as §1

The mark [1] stands for this setting: Homo sapiens, MIA PaCa-2, 120 h.

As for `C=CC(=O)N1CCN(c2nc(=O)n3c4nc(c(F)cc24)-c2c(F)cccc2OCC(OCC)C(O)c2ccnc(C(C)C)c2-3)[C@@H](C)C1` (stereo partly drawn) [Example 46, (S)-2^4-((S)-4-acryloyl-2-methylpiperazin-1-yl)-6-ethoxy-2^6,3^6-difluoro-7-hydroxy-1^2-isopropyl-2^1,2^2-dihydro-4-oxa-2(1,7)-pyrido[2,3-d]pyrimidina-1(3,4)-pyridina-3(1,2)-benzocycloheptane-2^2-one], the IC50 in the experiment with H358 is 261 nM; in the experiment with MIA PaCa-2, 148 nM.

Consider `C=CC(=O)N1CCN(c2nc(=O)n3c4nc(c(F)cc24)-c2c(F)cccc2OCC(O)C(OCC2CC2)c2ccnc(C(C)C)c2-3)[C@@H](C)C1` (stereo partly drawn) [Example 47, (R)-2^4-((S)-4-acryloyl-2-methylpiperazin-1-yl)-7-(cyclopropylmethoxy)-2^6,3^6-difluoro-6-hydroxy-1^2-isopropyl-2^1,2^2-dihydro-4-oxa-2(1,7)-pyrido[2,3-d]pyrimidina-1(3,4)-pyridina-3(1,2)-benzocycloheptane-2^2-one], for which the IC50 in the experiment on H358 (Homo sapiens, NCI-H358, 120 h) was determined as 9 nM; with MIA PaCa-2 (setting [1]), 5 nM.

For `C=CC(=O)N1CCN(c2nc(=O)n3c4nc(c(F)cc24)-c2c(F)cccc2OCC(OCC2CC2)C(O)c2ccnc(C(C)C)c2-3)[C@@H](C)C1` (stereo partly drawn) [Example 49, (R)-2^4-((S)-4-acryloyl-2-methylpiperazin-1-yl)-6-(cyclopropylmethoxy)-2^6,3^6-difluoro-7-hydroxy-1^2-isopropyl-2^1,2^2-dihydro-4-oxa-2(1,7)-pyrido[2,3-d]pyrimidina-1(3,4)-pyridina-3(1,2)-benzocycloheptane-2^2-one], the figures for the concentration for half-maximal inhibition (IC50) in the experiment with H358 and in the experiment on MIA PaCa-2 were 7 nM and 6 nM, respectively.

Consider `C=CC(=O)N1CCN(c2nc(=O)n3c4nc(c(F)cc24)-c2c(F)cccc2OCC(O)C(OCC(F)F)c2ccnc(C(C)C)c2-3)[C@@H](C)C1` (stereo partly drawn) [Example 51, (R)-2^4-((S)-4-acryloyl-2-methylpiperazin-1-yl)-7-(2,2-difluoroethoxy)-2^6,3^6-difluoro-6-hydroxy-1^2-isopropyl-2^1,2^2-dihydro-4-oxa-2(1,7)-pyrido[2,3-d]pyrimidina-1(3,4)-pyridina-3(1,2)-benzocycloheptane-2^2-one], for which the IC50 turned out to be 10 nM in the experiment with H358 and 7 nM with MIA PaCa-2.

On to `C=CC(=O)N1CCN(c2nc(=O)n3c4nc(c(F)cc24)-c2c(F)cccc2OCC(OCC(F)F)C(O)c2ccnc(C(C)C)c2-3)[C@@H](C)C1` (stereo partly drawn) [Example 53, (R)-2^4-((S)-4-acryloyl-2-methylpiperazin-1-yl)-6-(2,2-difluoroethoxy)-2^6,3^6-difluoro-7-hydroxy-1^2-isopropyl-2^1,2^2-dihydro-4-oxa-2(1,7)-pyrido[2,3-d]pyrimidina-1(3,4)-pyridina-3(1,2)-benzocycloheptane-2^2-one], for which the IC50 is 17 nM with H358 and 16 nM with MIA PaCa-2.

On to `C=CC(=O)N1CCN(c2nc(=O)n3c4nc(c(F)cc24)-c2c(F)cccc2OCC(OCC(F)F)C(O)c2ccnc(C(C)C)c2-3)[C@@H](C)C1` (stereo partly drawn) [Example 54, (S)-2^4-((S)-4-acryloyl-2-methylpiperazin-1-yl)-6-(2,2-difluoroethoxy)-2^6,3^6-difluoro-7-hydroxy-1^2-isopropyl-2^1,2^2-dihydro-4-oxa-2(1,7)-pyrido[2,3-d]pyrimidina-1(3,4)-pyridina-3(1,2)-benzocycloheptane-2^2-one], for which the half-inhibitory concentration (IC50) in the experiment with H358 was found to be 830 nM; in the experiment on MIA PaCa-2 it was 708 nM.

With `C=CC(=O)N1CCN(c2nc(=O)n3c4nc(c(F)cc24)-c2c(F)cccc2OCC(OC(C)C)C(O)c2ccnc(C(C)C)c2-3)[C@@H](C)C1` (stereo partly drawn) [Example 55, (R)-2^4-((S)-4-acryloyl-2-methylpiperazin-1-yl)-6-isopropoxy-2^6,3^6-difluoro-7-hydroxy-1^2-isopropyl-2^1,2^2-dihydro-4-oxa-2(1,7)-pyrido[2,3-d]pyrimidina-1(3,4)-pyridina-3(1,2)-benzocycloheptane-2^2-one], the IC50 is 8 nM with H358 and 7 nM in the experiment on MIA PaCa-2.

Consider `C=CC(=O)N1CCN(c2nc(=O)n3c4nc(c(F)cc24)-c2c(F)cccc2OCC(OC(C)C)C(O)c2ccnc(C(C)C)c2-3)[C@@H](C)C1` (stereo partly drawn) [Example 56, (S)-2^4-((S)-4-acryloyl-2-methylpiperazin-1-yl)-6-isopropoxy-2^6,3^6-difluoro-7-hydroxy-1^2-isopropyl-2^1,2^2-dihydro-4-oxa-2(1,7)-pyrido[2,3-d]pyrimidina-1(3,4)-pyridina-3(1,2)-benzocycloheptane-2^2-one], for which the results for the IC50 in the experiment with H358 and in the experiment with MIA PaCa-2 were 221 nM and 218 nM, respectively.

Turning to `C=CC(=O)N1C[C@H](C)N(c2nc(=O)n3c4nc(c(F)cc24)-c2c(F)cccc2OCC(O)C(OCC)c2ccnc(C(C)C)c2-3)C[C@H]1C` (stereo partly drawn) [Example 57, (R)-2^4-((2S,5R)-4-acryloyl-2,5-dimethylpiperazin-1-yl)-7-ethoxy-2^6,3^6-difluoro-6-hydroxy-1^2-isopropyl-2^1,2^2-dihydro-4-oxa-2(1,7)-pyrido[2,3-d]pyrimidina-1(3,4)-pyridina-3(1,2)-benzocycloheptane-2^2-one], the IC50 in the experiment with H358 came out at 35 nM; with MIA PaCa-2, 18 nM.

For `C=CC(=O)N1C[C@H](C)N(c2nc(=O)n3c4nc(c(F)cc24)-c2c(F)cccc2OCC(O)C(OCC)c2ccnc(C(C)C)c2-3)C[C@H]1C` (stereo partly drawn) [Example 58, (S)-2^4-((2S,5R)-4-acryloyl-2,5-dimethylpiperazin-1-yl)-7-ethoxy-2^6,3^6-difluoro-6-hydroxy-1^2-isopropyl-2^1,2^2-dihydro-4-oxa-2(1,7)-pyrido[2,3-d]pyrimidina-1(3,4)-pyridina-3(1,2)-benzocycloheptane-2^2-one], the figures for the IC50 in the experiment with H358 and with MIA PaCa-2 were 461 nM and 314 nM, respectively.

With `C=CC(=O)N1CCN(c2nc(=O)n3c4nc(c(F)cc24)-c2c(F)cccc2OCC(OC)C(OC)c2ccnc(C(C)C)c2-3)[C@@H](C)C1` (stereo partly drawn) [Example 59, 2^4-((S)-4-acryloyl-2-methylpiperazin-1-yl)-2^6,3^6-difluoro-1^2-isopropyl-6,7-dimethoxy-2^1,2^2-dihydro-4-oxa-2(1,7)-pyrido[2,3-d]pyrimidina-1(3,4)-pyridina-3(1,2)-benzocycloheptane-2^2-one], the IC50 in the experiment on H358 (Homo sapiens, NCI-H358, 120 h) amounted to 23 nM; in the experiment with MIA PaCa-2 (setting [1]), 9 nM.

For `C=CC(=O)N1CCN(c2nc(=O)n3c4nc(c(F)cc24)-c2c(F)cccc2OCC(OCC)C(OCC)c2ccnc(C(C)C)c2-3)[C@@H](C)C1` (stereo partly drawn) [Example 60, 2^4-((S)-4-acryloyl-2-methylpiperazin-1-yl)-6,7-diethoxy-2^6,3^6-difluoro-1^2-isopropyl-2^1,2^2-dihydro-4-oxa-2(1,7)-pyrido[2,3-d]pyrimidina-1(3,4)-pyridina-3(1,2)-benzocycloheptane-2^2-one], the IC50 in the experiment with H358 (Homo sapiens, NCI-H358, 120 h) stood at 45 nM; with MIA PaCa-2 (setting [1]), 38 nM.

For the compound `C=CC(=O)N1CCN(c2nc(=O)n3c4nc(c(F)cc24)-c2c(F)cccc2OCC(OCCF)C(OCCF)c2ccnc(C(C)C)c2-3)[C@@H](C)C1` (stereo partly drawn) [Example 61, 2^4-((S)-4-acryloyl-2-methylpiperazin-1-yl)-2^6,3^6-difluoro-6,7-di(2-fluoroethoxy)-1^2-isopropyl-2^1,2^2-dihydro-4-oxa-2(1,7)-pyrido[2,3-d]pyrimidina-1(3,4)-pyridina-3(1,2)-benzocycloheptane-2^2-one], the IC50 in the experiment with H358 (Homo sapiens, NCI-H358, 120 h) stood at 38 nM; in the experiment on MIA PaCa-2 (setting [1]), 16 nM.
